Measurements reported in PubChem BioAssay (NCI).
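1) Cells in 96-well plates. 2) Compound, 48 h, 5 concentrations. 3) Linear interpolation between surrounding doses. 4) Unreached endpoint = highest concentration. GI50: concentration for 50% inhibition of growth. The concentration for full growth arrest is given as TGI.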

Key:
Assay in all cases: DTP human tumour cell line panel, 48 h
[1] = system: NCI-H522 lung
[2] = system: K-562 leukemia
[3] = system: M14 melanoma
[4] = system: CAKI-1 renal
[5] = system: SK-MEL-5 melanoma
[6] = system: EKVX NSCLC
[7] = system: UACC-62 melanoma
[8] = system: SW-620 colon
[9] = system: OVCAR-4 ovarian
[10] = system: SK-MEL-28 melanoma

SMILES	TGI [1] [µM]	TGI [2] [µM]	TGI [3] [µM]	TGI [4] [µM]	TGI [5] [µM]	TGI [6] [µM]	TGI [7] [µM]	TGI [8] [µM]	TGI [9] [µM]	TGI [10] [µM]	GI50 [1] [µM]	GI50 [2] [µM]	GI50 [3] [µM]	GI50 [4] [µM]	GI50 [5] [µM]	GI50 [6] [µM]	GI50 [7] [µM]	GI50 [8] [µM]	GI50 [9] [µM]	GI50 [10] [µM]
S=c1nc(-c2ccnc(-c3nc(=S)[nH][nH]3)c2)[nH][nH]1	> 100	> 100	> 100	> 100	> 100	> 100	> 100	> 100	> 100	> 100										
N#CC1C=Cc2ccccc2N1C(=O)Oc1ccccc1 (stereo not given)	> 100	> 100	> 100	> 100	> 100	> 100	> 100	> 100	> 100	> 100										
COc1ccc2nc3ccccc3c(NCCCCN(C)CCCl)c2c1	0.0763	0.93	0.314	0.381	0.442	3.05	0.305	0.2	0.843	2.39										
COc1ccc(CCc2cc(OC)c(OC)c(OC)c2)cc1	0.115	13.7	16	20.4	12	70	> 100	> 100	> 92.5	> 61.3										
COc1ccc(CCN=C2CCC(C(=O)NCCc3ccc(OC)c(OC)c3)N2)cc1OC (stereo not given)	> 100	> 100	> 100	> 100	> 100	> 100	> 100	> 100	> 100	> 100										
Cc1cc(Cl)cc2c1NC(=O)C2=O (tested in a mixture with another compound)	86	> 100	> 100	> 100	> 100	> 100	41.6	> 100	> 100	> 100										
COc1cc([N+](=O)[O-])c2ncccc2c1[N+](=O)[O-]	2.62	> 100	15.8	4	25.3	29.4	25.1	3.44	3.37	27.1	1.13	3.97	4.24	1.65	12.6	15.4	12	1.82	1.82	13.2
CC/C=C\C/C=C\C[C@H](O)C/C=C1/C(=O)C=C[C@@H]1C/C=C\CCCC(=O)OC	2.36	12.5	3.53	14.5	2.93	10.9	2.85	10.3	20.2	4	1.03	0.546	1.43	3.41	1.54	3.15	0.714	0.834	4.06	1.78
CC1=C(C(=O)Nc2ccc(Cl)c(Cl)c2)C(c2ccccc2O)NC(=O)N1 (stereo not given)	> 50	> 50	> 50	> 50	> 50	> 50	> 50	> 50	> 50	> 50	> 50	26	> 50	> 50	22.5	28.6	35.1	> 50	42.7	> 50
